Test results: the kinase profiling compilation of Christmann-Franck et al. (2016)

Assays:
Assay in all cases: radiometric filter-binding kinase assay, Kinase HotSpot
Details in all cases: compound 0.5 µM; ATP 10 µM
CSNK1G2 (human) = CSNK1G2 (human) (UniProt P78368)
PRKCD (human) = PRKCD (human) (UniProt Q05655)
EPHA5 (human) = EPHA5 (human) (UniProt P54756)
MKNK2 (human) = MKNK2 (human) (UniProt Q9HBH9)
PBK (human) = PBK (human) (UniProt Q96KB5)
MELK (human) = MELK (human) (UniProt Q14680)
ROCK1 (human) = ROCK1 (human) (UniProt Q13464)
CDK6 CCND3 (human) = CDK6 CCND3 (human) (UniProt P30281+Q00534)
PKN1 (human) = PKN1 (human) (UniProt Q16512)
MARK3 (human) = MARK3 (human) (UniProt P27448)
[1] = target: TYK2 JH1 catalytic (human) (UniProt P29597)
Chain of TYK2 JH1 catalytic (human) (P29597 whole entry, looked up): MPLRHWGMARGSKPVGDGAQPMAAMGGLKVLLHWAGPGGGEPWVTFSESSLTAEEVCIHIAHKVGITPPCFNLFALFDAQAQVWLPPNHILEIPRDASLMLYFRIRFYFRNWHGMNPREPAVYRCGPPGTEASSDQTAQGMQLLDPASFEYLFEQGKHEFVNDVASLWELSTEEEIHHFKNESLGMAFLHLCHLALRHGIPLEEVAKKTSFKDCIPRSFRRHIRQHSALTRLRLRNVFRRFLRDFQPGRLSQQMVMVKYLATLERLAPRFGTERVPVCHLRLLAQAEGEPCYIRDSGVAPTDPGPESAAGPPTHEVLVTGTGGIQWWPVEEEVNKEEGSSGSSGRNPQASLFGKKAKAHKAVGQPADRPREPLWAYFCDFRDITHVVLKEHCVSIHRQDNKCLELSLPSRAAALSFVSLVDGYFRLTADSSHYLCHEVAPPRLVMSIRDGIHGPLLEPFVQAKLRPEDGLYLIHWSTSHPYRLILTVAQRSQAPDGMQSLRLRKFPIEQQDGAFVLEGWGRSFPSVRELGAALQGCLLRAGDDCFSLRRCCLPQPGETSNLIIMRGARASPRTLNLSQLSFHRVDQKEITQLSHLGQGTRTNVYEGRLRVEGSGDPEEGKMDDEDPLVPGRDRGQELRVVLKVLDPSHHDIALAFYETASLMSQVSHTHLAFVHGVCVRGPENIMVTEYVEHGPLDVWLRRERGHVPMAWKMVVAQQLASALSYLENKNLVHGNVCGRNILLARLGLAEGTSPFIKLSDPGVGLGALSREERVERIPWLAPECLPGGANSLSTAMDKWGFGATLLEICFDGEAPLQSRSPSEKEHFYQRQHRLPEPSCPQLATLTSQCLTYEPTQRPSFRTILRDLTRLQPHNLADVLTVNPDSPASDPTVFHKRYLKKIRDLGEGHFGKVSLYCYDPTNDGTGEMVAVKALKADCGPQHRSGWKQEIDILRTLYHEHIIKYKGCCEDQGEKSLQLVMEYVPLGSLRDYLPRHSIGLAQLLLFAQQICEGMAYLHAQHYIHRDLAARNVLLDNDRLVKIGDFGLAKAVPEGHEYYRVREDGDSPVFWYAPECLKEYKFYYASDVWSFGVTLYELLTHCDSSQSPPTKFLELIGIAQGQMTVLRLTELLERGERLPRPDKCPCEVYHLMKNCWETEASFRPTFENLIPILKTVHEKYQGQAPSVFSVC

[2] = system: MKNK1 (human), Q9BUB5 [T385D; 165-205 del]
Chain of MKNK1 (human), Q9BUB5 [T385D; 165-205 del] (Q9BUB5 whole entry, looked up, stated change not applied): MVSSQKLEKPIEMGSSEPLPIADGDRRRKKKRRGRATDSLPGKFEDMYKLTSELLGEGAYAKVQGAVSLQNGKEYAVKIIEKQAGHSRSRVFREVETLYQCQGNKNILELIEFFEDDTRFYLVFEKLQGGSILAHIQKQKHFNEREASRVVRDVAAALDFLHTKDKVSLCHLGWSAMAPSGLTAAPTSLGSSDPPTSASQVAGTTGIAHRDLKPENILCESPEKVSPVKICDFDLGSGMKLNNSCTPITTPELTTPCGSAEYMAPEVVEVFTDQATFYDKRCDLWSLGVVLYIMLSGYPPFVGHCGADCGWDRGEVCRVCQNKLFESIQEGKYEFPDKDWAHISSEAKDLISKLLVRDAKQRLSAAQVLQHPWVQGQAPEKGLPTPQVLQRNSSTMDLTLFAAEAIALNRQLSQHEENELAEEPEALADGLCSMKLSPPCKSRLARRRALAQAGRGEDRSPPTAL

RPS6KA1 KD1 KD2 (human) = RPS6KA1 KD1 KD2 (human) (UniProt Q15418)
STK17A (human) = STK17A (human) (UniProt Q9UEE5)
Chain of STK17A (human) (Q9UEE5 whole entry, looked up): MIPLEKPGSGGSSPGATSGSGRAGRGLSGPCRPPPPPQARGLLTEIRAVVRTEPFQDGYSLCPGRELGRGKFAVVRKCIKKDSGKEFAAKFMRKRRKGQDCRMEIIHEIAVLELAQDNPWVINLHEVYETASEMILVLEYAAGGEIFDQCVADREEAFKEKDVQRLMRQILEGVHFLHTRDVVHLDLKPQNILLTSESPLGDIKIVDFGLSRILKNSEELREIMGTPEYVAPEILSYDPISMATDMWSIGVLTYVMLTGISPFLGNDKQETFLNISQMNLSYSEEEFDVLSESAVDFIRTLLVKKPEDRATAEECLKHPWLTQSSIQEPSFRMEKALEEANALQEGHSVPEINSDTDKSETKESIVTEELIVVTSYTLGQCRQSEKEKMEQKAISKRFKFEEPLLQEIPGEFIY

MAP3K8 (human) = MAP3K8 (human) (UniProt P41279)
Chain of MAP3K8 (human) (P41279 whole entry, looked up): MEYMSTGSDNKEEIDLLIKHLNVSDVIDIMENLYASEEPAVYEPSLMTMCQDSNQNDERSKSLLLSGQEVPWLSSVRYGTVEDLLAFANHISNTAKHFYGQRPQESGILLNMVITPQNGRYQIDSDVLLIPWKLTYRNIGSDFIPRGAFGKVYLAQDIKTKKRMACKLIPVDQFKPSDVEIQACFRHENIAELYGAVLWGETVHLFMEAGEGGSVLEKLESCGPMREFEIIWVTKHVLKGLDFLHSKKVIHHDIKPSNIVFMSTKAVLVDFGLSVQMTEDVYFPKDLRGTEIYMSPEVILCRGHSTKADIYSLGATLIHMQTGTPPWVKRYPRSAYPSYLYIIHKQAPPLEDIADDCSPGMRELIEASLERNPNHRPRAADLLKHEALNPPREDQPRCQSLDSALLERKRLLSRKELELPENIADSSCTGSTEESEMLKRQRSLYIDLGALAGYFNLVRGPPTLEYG

MATK (human) = MATK (human) (UniProt P42679)
STK11 (human) = STK11 (human) (UniProt Q15831)
STK10 (human) = STK10 (human) (UniProt O94804)
MET (human) = MET (human) (UniProt P08581)
BMX (human) = BMX (human) (UniProt P51813)
PRKX (human) = PRKX (human) (UniProt P51817)
MAP4K4 (human) = MAP4K4 (human) (UniProt O95819)
PIM1 (human) = PIM1 (human) (UniProt P11309)
RPS6KA2 KD1 KD2 (human) = RPS6KA2 KD1 KD2 (human) (UniProt Q15349)
MST4 (human) = MST4 (human) (UniProt Q9P289)
HCK (human) = HCK (human) (UniProt P08631)
MAPK3 (human) = MAPK3 (human) (UniProt P27361)
AKT2 (human) = AKT2 (human) (UniProt P31751)
VRK1 (human) = VRK1 (human) (UniProt Q99986)
TSSK2 (human) = TSSK2 (human) (UniProt Q96PF2)
CHEK1 (human) = CHEK1 (human) (UniProt O14757)
PNCK (human) = PNCK (human) (UniProt Q6P2M8)
Chain of PNCK (human) (Q6P2M8 whole entry, looked up): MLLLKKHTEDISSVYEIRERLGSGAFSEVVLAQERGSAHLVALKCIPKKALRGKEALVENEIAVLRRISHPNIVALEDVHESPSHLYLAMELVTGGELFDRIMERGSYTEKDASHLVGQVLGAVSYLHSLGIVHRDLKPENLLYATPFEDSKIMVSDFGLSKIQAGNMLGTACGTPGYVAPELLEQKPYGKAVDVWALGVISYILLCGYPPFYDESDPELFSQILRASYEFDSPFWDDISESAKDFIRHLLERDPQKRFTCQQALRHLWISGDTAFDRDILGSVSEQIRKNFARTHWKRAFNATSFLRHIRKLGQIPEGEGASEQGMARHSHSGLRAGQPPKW

PRKCH (human) = PRKCH (human) (UniProt P24723)
CDK5 CDK5R1 p25 (human) = CDK5 CDK5R1 p25 (human) (UniProt Q00535+Q15078)
HIPK3 (human) = HIPK3 (human) (UniProt Q9H422)
NEK11 (human) = NEK11 (human) (UniProt Q8NG66)
Chain of NEK11 (human) (Q8NG66 whole entry, looked up): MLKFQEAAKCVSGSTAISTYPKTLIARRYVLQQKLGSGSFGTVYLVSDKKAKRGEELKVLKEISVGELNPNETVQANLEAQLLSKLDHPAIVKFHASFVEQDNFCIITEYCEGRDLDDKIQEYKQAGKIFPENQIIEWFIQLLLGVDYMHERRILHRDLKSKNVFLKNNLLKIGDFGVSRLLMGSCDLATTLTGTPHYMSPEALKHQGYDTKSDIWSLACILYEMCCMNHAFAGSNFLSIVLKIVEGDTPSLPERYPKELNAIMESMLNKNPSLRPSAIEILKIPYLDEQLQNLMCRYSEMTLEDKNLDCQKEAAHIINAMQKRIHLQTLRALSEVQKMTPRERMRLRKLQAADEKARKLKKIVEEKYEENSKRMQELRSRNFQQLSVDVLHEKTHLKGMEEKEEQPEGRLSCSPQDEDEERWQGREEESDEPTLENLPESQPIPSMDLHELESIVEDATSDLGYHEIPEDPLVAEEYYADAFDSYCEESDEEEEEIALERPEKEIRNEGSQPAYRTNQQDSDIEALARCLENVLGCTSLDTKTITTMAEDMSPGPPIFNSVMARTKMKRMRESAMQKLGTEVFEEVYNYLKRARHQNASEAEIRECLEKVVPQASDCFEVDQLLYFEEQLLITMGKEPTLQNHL

NUAK2 (human) = NUAK2 (human) (UniProt Q9H093)
FYN (human) = FYN (human) (UniProt P06241)
EPHB3 (human) = EPHB3 (human) (UniProt P54753)
DYRK2 (human) = DYRK2 (human) (UniProt Q92630)
Chain of DYRK2 (human) (Q92630 whole entry, looked up): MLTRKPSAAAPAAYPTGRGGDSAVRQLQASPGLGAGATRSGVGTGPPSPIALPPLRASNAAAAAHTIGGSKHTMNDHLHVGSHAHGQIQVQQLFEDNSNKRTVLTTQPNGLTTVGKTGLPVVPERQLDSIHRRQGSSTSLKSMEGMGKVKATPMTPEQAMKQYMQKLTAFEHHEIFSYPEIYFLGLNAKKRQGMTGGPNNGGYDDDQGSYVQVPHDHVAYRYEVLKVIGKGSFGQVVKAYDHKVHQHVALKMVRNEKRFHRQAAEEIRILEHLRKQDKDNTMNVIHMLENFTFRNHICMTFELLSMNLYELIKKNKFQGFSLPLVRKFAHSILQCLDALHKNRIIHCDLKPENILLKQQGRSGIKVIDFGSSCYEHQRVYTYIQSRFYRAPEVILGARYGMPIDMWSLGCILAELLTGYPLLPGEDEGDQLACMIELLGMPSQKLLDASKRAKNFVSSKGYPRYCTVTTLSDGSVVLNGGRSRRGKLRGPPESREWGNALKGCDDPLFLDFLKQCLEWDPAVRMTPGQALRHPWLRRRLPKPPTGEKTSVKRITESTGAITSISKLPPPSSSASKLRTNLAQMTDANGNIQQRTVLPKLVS

EPHA7 (human) = EPHA7 (human) (UniProt Q15375)
MARK4 (human) = MARK4 (human) (UniProt Q96L34)

Chain of MKNK2 (human) (Q9HBH9 whole entry, looked up): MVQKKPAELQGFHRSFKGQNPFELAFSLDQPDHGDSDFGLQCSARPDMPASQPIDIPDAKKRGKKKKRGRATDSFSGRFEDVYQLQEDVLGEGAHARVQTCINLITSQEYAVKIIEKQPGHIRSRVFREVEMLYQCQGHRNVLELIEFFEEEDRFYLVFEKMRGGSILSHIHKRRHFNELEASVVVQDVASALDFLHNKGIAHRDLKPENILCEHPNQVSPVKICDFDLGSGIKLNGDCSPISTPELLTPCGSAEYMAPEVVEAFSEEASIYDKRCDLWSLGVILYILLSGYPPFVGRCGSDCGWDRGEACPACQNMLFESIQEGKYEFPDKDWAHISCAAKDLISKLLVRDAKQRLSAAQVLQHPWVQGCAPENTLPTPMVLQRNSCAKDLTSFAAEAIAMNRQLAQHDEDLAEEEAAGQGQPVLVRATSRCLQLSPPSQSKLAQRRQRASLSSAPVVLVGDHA
Chain of PBK (human) (Q96KB5 whole entry, looked up): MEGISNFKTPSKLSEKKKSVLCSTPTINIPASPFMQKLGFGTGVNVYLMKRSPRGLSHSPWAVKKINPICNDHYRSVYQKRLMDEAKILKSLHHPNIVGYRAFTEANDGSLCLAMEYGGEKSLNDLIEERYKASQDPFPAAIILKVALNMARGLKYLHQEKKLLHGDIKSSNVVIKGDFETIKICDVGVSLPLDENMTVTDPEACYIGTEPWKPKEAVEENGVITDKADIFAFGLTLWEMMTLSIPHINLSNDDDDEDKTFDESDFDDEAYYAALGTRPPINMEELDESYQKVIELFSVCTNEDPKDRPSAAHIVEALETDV

SMILES: Cc1nc(-c2ccccc2)c(-c2ccncc2)o1
- residual activity (CSNK1G2 (human)): 92.2%
- residual activity (PRKCD (human)): 96.2%
- residual activity (EPHA5 (human)): 91.4%
- residual activity (MKNK2 (human)): 90.5%
- residual activity (PBK (human)): 110%
- residual activity (MELK (human)): 105%
- residual activity (ROCK1 (human)): 99.8%
- residual activity (CDK6 CCND3 (human)): 109%
- residual activity (PKN1 (human)): 101%
- residual activity (MARK3 (human)): 107%
- residual activity [1]: 109%
- residual activity [2]: 123%
- residual activity (RPS6KA1 KD1 KD2 (human)): 103%
- residual activity (STK17A (human)): 99.5%
- residual activity (MAP3K8 (human)): 89.9%
- residual activity (MATK (human)): 90.3%
- residual activity (STK11 (human)): 98.4%
- residual activity (STK10 (human)): 96.9%
- residual activity (MET (human)): 102%
- residual activity (BMX (human)): 102%
- residual activity (PRKX (human)): 101%
- residual activity (MAP4K4 (human)): 85.1%
- residual activity (PIM1 (human)): 105%
- residual activity (RPS6KA2 KD1 KD2 (human)): 93%
- residual activity (MST4 (human)): 114%
- residual activity (HCK (human)): 98.9%
- residual activity (MAPK3 (human)): 103%
- residual activity (AKT2 (human)): 96.7%
- residual activity (VRK1 (human)): 98.5%
- residual activity (TSSK2 (human)): 90.1%
- residual activity (CHEK1 (human)): 106%
- residual activity (PNCK (human)): 96.6%
- residual activity (PRKCH (human)): 88.1%
- residual activity (CDK5 CDK5R1 p25 (human)): 97%
- residual activity (HIPK3 (human)): 107%
- residual activity (NEK11 (human)): 76.7%
- residual activity (NUAK2 (human)): 128%
- residual activity (FYN (human)): 99.8%
- residual activity (EPHB3 (human)): 99.2%
- residual activity (DYRK2 (human)): 98.6%
- residual activity (EPHA7 (human)): 91.5%
- residual activity (MARK4 (human)): 103%

SMILES: O=C(c1cc2cc(O)ccc2[nH]1)c1cc2cc(O)ccc2[nH]1
- residual activity (CSNK1G2 (human)): 93.8%
- residual activity (PRKCD (human)): 89.7%
- residual activity (EPHA5 (human)): 100%
- residual activity (MKNK2 (human)): 46.8%
- residual activity (PBK (human)): 100%
- residual activity (MELK (human)): 49.2%
- residual activity (ROCK1 (human)): 96.2%
- residual activity (CDK6 CCND3 (human)): 50.3%
- residual activity (PKN1 (human)): 76.3%
- residual activity (MARK3 (human)): 84.4%
- residual activity [1]: 66.7%
- residual activity [2]: 83.6%
- residual activity (RPS6KA1 KD1 KD2 (human)): 30.1%
- residual activity (STK17A (human)): 51.7%
- residual activity (MAP3K8 (human)): 93%
- residual activity (MATK (human)): 93.3%
- residual activity (STK11 (human)): 101%
- residual activity (STK10 (human)): 70.3%
- residual activity (MET (human)): 89.2%
- residual activity (BMX (human)): 80.6%
- residual activity (PRKX (human)): 94.5%
- residual activity (MAP4K4 (human)): 6.63%
- residual activity (PIM1 (human)): 76.1%
- residual activity (RPS6KA2 KD1 KD2 (human)): 22.2%
- residual activity (MST4 (human)): 101%
- residual activity (HCK (human)): 51.2%
- residual activity (MAPK3 (human)): 107%
- residual activity (AKT2 (human)): 104%
- residual activity (VRK1 (human)): 85.3%
- residual activity (TSSK2 (human)): 93.6%
- residual activity (CHEK1 (human)): 82.5%
- residual activity (PNCK (human)): 105%
- residual activity (PRKCH (human)): 76.3%
- residual activity (CDK5 CDK5R1 p25 (human)): 52.6%
- residual activity (HIPK3 (human)): 97.3%
- residual activity (NEK11 (human)): 96.7%
- residual activity (NUAK2 (human)): 95.7%
- residual activity (FYN (human)): 28.8%
- residual activity (EPHB3 (human)): 92.3%
- residual activity (DYRK2 (human)): 89%
- residual activity (EPHA7 (human)): 101%
- residual activity (MARK4 (human)): 55.3%
